A short description of series [1]: Partition coefficient (logD) (octanol/citric acid-phosphate buffer).
For another series, the species on record is Sus scrofa. In words: Concentration required for 50% inhibition of porcine kidney renin at 10e-7 nM concentration. In kind it is functional.
Series [2] in a line: physchem. Particulars: S.
The nature of series [3]: physchem. Particulars: phosphate buffer, pH 7.4, S.
Description: Solubility (phosphate buffer, pH 7.4)
For series [4] the following is noted: buffer, pH 7.4.
Description: Solubility (phosphate buffer, pH 7.4)
For series [5], the system named is Canis familiaris. In words: Change in mean blood pressure (MBP) in dog 1 after oral administration after a period of 10 min. In kind it is functional, Canis lupus familiaris.
In series [6] the test system is Canis familiaris. In words: Change in mean blood pressure (MBP) in dog 1 after oral administration after a period of 120 min. The class given is functional, Canis lupus familiaris.
Series [7] concerns Canis familiaris. In words: Change in mean blood pressure (MBP) in dog 1 after oral administration after a period of 150 min. The class given is functional, Canis lupus familiaris.
In series [8] the test system is Canis familiaris. In words: Change in mean blood pressure (MBP) in dog 1 after oral administration after a period of 15 min. The class given is functional, Canis lupus familiaris.
In series [9] the test system is Canis familiaris. In words: Change in mean blood pressure (MBP) in dog 1 after oral administration after a period of 180 min. The class given is functional, Canis lupus familiaris.
For series [10], the system named is Canis familiaris. In words: Change in mean blood pressure (MBP) in dog 1 after oral administration after a period of 240 min. The class given is functional, Canis lupus familiaris.
Series [11] deals with Canis familiaris. In words: Change in mean blood pressure (MBP) in dog 1 after oral administration after a period of 300 min. In kind it is functional, Canis lupus familiaris.
Series [12] has as its system Canis familiaris. In words: Change in mean blood pressure (MBP) in dog 1 after oral administration after a period of 30 min. In kind it is functional, Canis lupus familiaris.
In series [13] the test system is Canis familiaris. In words: Change in mean blood pressure (MBP) in dog 1 after oral administration after a period of 45 min. In kind it is functional, Canis lupus familiaris.
Series [14] deals with Canis familiaris. In words: Change in mean blood pressure (MBP) in dog 1 after oral administration after a period of 60 min. The class given is functional, Canis lupus familiaris.
In series [15] the test system is Canis familiaris. In words: Change in mean blood pressure (MBP) in dog 1 after oral administration after a period of 75 min. The class given is functional, Canis lupus familiaris.
Series [16] concerns Canis familiaris. In words: Change in mean blood pressure (MBP) in dog 1 after oral administration after a period of 90 min. In kind it is functional, Canis lupus familiaris.
The subject of series [17] is Canis familiaris. In words: Change in mean blood pressure (MBP) in dog 2 after oral administration after a period of 120 min. In kind it is functional, Canis lupus familiaris.
Series [18] concerns Canis familiaris. In words: Change in mean blood pressure (MBP) in dog 2 after oral administration after a period of 150 min. The class given is functional, Canis lupus familiaris.
The test system of series [19] is Canis familiaris. In words: Change in mean blood pressure (MBP) in dog 2 after oral administration after a period of 15 min. In kind it is functional, Canis lupus familiaris.
Series [20] has as its system Canis familiaris. In words: Change in mean blood pressure (MBP) in dog 2 after oral administration after a period of 180 min. In kind it is functional, Canis lupus familiaris.
The subject of series [21] is Canis familiaris. In words: Change in mean blood pressure (MBP) in dog 2 after oral administration after a period of 240 min. In kind it is functional, Canis lupus familiaris.
Series [22] relates to Canis familiaris. In words: Change in mean blood pressure (MBP) in dog 2 after oral administration after a period of 300 min. The class given is functional, Canis lupus familiaris.
Series [23] deals with Canis familiaris. In words: Change in mean blood pressure (MBP) in dog 2 after oral administration after a period of 30 min. The class given is functional, Canis lupus familiaris.
For series [24], the system named is Canis familiaris. In words: Change in mean blood pressure (MBP) in dog 2 after oral administration after a period of 45 min. The class given is functional, Canis lupus familiaris.
In series [25] the test system is Canis familiaris. In words: Change in mean blood pressure (MBP) in dog 2 after oral administration after a period of 60 min. In kind it is functional, Canis lupus familiaris.
Series [26] concerns Canis familiaris. In words: Change in mean blood pressure (MBP) in dog 2 after oral administration after a period of 75 min. In kind it is functional, Canis lupus familiaris.
For series [27], the system named is Canis familiaris. In words: Change in mean blood pressure (MBP) in dog 2 after oral administration after a period of 90 min. In kind it is functional, Canis lupus familiaris.
For series [28], the system named is Canis familiaris. In words: Change in mean blood pressure (MBP) in dog 3 after oral administration after a period of 120 min. The class given is functional, Canis lupus familiaris.
Series [29] deals with Canis familiaris. In words: Change in mean blood pressure (MBP) in dog 3 after oral administration after a period of 150 min. In kind it is functional, Canis lupus familiaris.
For series [30], the system named is Canis familiaris. In words: Change in mean blood pressure (MBP) in dog 3 after oral administration after a period of 15 min. In kind it is functional, Canis lupus familiaris.
Series [31] concerns Canis familiaris. In words: Change in mean blood pressure (MBP) in dog 3 after oral administration after a period of 180 min. The class given is functional, Canis lupus familiaris.
The test system of series [32] is Canis familiaris. In words: Change in mean blood pressure (MBP) in dog 3 after oral administration after a period of 240 min. The class given is functional, Canis lupus familiaris.
Series [33] relates to Canis familiaris. In words: Change in mean blood pressure (MBP) in dog 3 after oral administration after a period of 300 min. The class given is functional, Canis lupus familiaris.
For series [34], the system named is Canis familiaris. In words: Change in mean blood pressure (MBP) in dog 3 after oral administration after a period of 30 min. The class given is functional, Canis lupus familiaris.
Series [35] has as its system Canis familiaris. In words: Change in mean blood pressure (MBP) in dog 3 after oral administration after a period of 45 min. In kind it is functional, Canis lupus familiaris.
Series [36] has as its system Canis familiaris. In words: Change in mean blood pressure (MBP) in dog 3 after oral administration after a period of 60 min. In kind it is functional, Canis lupus familiaris.
The test system of series [37] is Canis familiaris. In words: Change in mean blood pressure (MBP) in dog 3 after oral administration after a period of 75 min. The class given is functional, Canis lupus familiaris.
Series [38] concerns Canis familiaris. In words: Change in mean blood pressure (MBP) in dog 3 after oral administration after a period of 90 min. The class given is functional, Canis lupus familiaris.

The values that follow come from ChEMBL document CHEMBL1123973, “Renin inhibitors containing hydrophilic groups. Tetrapeptides with enhanced aqueous solubility and nanomolar potency” (J Med Chem, 1988).

In series [1], `CC(C)CC(NC(=O)[C@H](Cc1c[nH]cn1)NC(=O)[C@H](Cc1ccccc1)NC(=O)OC(C)(C)C)C(O)CC(=O)N[C@@H](CC(C)C)C(=O)NCCS(=O)(=O)O` (stereo not given in full) had a logD of 0.633. In the series filed under Sus scrofa, this molecule yielded an Inhibition of 0%. The solubility in “physchem [2]” and in the series “physchem [3]” was > 11 mM each time.

As for `CC(C)CC(NC(=O)[C@H](Cc1c[nH]cn1)NC(=O)[C@H](Cc1ccccc1)NC(=O)OC(C)(C)C)C(O)CC(=O)N[C@@H](CC(C)C)C(=O)NCCC(N)C(=O)O` (stereo in doubt; 16), the S is 2300 µM. This molecule gave a S in series [4] of 6100 µM.

Consider `CC(C)C[C@H](NC(=O)CC(O)C(CC1CCCCC1)NC(=O)[C@H](Cc1c[nH]cn1)NC(=O)[C@H](Cc1ccccc1)NC(=O)OC(C)(C)C)C(=O)NCc1cccc(CN)c1` (stereo not given in full), for which the MBP is reported as -12 mmHg with Canis familiaris [5]; -2 mmHg in the series with Canis familiaris [6]; -1 mmHg with Canis familiaris [7]; -18 mmHg in the series with Canis familiaris [8]; -13 mmHg in the series with Canis familiaris [9]; 1 mmHg with Canis familiaris [10]. For the same molecule, the MBP in the series on Canis familiaris [11] was -10 mmHg; in the series on Canis familiaris [12], -2 mmHg; with Canis familiaris [13], -6 mmHg; in the series with Canis familiaris [14] it was -4 mmHg; in the series on Canis familiaris [15], -7 mmHg; with Canis familiaris [16], 1 mmHg. Further, the MBP with Canis familiaris [17] is reported as -4 mmHg; with Canis familiaris [18], -3 mmHg; in the series with Canis familiaris [19], -6 mmHg; with Canis familiaris [20], -2 mmHg; with Canis familiaris [21], -1 mmHg; with Canis familiaris [22] it was -1 mmHg. Further, the MBP in the series with Canis familiaris [23] is on record as -3 mmHg; with Canis familiaris [24] it was -4 mmHg; with Canis familiaris [25], 0 mmHg; in the series with Canis familiaris [26], 1 mmHg; with Canis familiaris [27], -5 mmHg; with Canis familiaris [28], 1 mmHg. Also, the MBP in the series on Canis familiaris [29] is recorded as -2 mmHg; in the series on Canis familiaris [30] it was 1 mmHg; in the series with Canis familiaris [31], -5 mmHg; in the series on Canis familiaris [32], -3 mmHg; with Canis familiaris [33] it was -3 mmHg; in the series with Canis familiaris [34] it was -6 mmHg. The MBP is on record as -7 mmHg in the series on Canis familiaris [35], -5 mmHg in the series on Canis familiaris [36], -9 mmHg in the series with Canis familiaris [37] and -2 mmHg with Canis familiaris [38].

What is called logD is the decadic logarithm of the distribution of all forms, ionised or not, between an organic phase and buffer at a given pH. The low end stands for a more hydrophilic compound, the high end for a more lipophilic compound. What is called Inhibition is the share of the control response that was lost under treatment. Read a high Inhibition as a response far below the control. As usually defined, the solubility is the concentration that dissolves in the medium under given conditions.
